ChEMBL document CHEMBL4507319 (2021)

How the values were obtained:
[1] = molecular target: 5'-AMP-activated protein kinase catalytic subunit alpha-1 (Homo sapiens, UniProt Q13131); conditions: Compound concentration 1000.0 nM
[2] = molecular target: Proto-oncogene tyrosine-protein kinase receptor Ret (Homo sapiens) (UniProt P07949); conditions: Compound concentration 1000.0 nM
[3] = molecular target: Serine/threonine-protein kinase tousled-like 2 (Homo sapiens) (UniProt Q86UE8); conditions: Compound concentration 1000.0 nM
[4] = molecular target: Serine/threonine-protein kinase PAK 1 (Homo sapiens) (UniProt Q13153); conditions: Compound concentration 1000.0 nM
[5] = molecular target: T1, Serine/threonine-protein kinase DCLK3 (Homo sapiens) (UniProt Q9C098); conditions: Compound concentration 1000.0 nM
T1 sequence (whole entry): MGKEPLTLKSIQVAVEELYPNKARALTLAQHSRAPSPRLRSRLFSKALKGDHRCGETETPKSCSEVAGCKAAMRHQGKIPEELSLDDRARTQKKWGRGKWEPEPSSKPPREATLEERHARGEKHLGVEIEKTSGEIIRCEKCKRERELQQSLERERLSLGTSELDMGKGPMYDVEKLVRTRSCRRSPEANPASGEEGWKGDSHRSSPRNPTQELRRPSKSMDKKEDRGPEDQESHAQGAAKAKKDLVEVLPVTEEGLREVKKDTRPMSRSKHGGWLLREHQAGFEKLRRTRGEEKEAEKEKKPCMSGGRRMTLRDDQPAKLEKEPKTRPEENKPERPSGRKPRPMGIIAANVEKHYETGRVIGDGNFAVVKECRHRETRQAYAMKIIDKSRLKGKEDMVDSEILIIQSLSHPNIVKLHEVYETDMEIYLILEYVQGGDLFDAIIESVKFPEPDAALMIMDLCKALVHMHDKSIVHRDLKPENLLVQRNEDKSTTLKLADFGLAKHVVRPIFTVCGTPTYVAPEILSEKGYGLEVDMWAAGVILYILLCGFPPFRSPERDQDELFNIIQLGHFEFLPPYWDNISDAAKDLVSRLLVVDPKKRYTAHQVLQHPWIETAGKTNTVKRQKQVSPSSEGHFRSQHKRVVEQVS

[6] = molecular target: Ankyrin repeat and protein kinase domain-containing protein 1 (Homo sapiens) (UniProt Q8NFD2); conditions: Compound concentration 1000.0 nM
Sequence of Ankyrin repeat and protein kinase domain-containing protein 1 (Homo sapiens) (Q8NFD2 whole entry, the tested form may be a part): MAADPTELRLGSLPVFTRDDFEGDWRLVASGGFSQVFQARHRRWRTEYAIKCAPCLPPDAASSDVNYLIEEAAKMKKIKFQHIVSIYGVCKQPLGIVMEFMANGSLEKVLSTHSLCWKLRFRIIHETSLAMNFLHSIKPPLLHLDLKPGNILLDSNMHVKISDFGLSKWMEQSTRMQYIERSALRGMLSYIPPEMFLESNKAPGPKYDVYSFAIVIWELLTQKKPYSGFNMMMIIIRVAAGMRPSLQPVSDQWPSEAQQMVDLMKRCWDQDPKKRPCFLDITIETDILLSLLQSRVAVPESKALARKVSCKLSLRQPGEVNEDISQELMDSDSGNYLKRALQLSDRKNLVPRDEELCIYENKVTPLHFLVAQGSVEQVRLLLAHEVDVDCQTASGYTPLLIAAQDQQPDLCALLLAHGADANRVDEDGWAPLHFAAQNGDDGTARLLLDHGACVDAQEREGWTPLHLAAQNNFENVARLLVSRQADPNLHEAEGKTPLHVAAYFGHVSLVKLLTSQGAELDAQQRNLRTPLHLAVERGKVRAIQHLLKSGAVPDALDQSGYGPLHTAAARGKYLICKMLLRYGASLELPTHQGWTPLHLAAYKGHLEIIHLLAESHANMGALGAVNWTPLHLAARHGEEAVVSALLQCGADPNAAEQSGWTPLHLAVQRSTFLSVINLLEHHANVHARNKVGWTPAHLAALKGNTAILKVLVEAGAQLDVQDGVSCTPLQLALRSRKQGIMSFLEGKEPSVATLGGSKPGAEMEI

[7] = molecular target: Casein kinase II subunit alpha (Homo sapiens) (UniProt P68400); conditions: Compound concentration 1000.0 nM
Sequence of Casein kinase II subunit alpha (Homo sapiens) (P68400 whole entry, looked up): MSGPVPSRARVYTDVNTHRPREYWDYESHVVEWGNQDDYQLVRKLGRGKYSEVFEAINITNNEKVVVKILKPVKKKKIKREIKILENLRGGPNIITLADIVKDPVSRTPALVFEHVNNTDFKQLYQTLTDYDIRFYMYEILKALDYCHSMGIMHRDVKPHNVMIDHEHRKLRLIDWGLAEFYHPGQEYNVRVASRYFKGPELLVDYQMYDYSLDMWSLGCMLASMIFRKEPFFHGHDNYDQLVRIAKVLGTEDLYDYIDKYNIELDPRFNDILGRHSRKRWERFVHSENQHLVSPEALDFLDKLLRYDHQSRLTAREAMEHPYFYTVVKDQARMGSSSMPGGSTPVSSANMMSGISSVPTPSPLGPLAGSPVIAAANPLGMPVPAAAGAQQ

[8] = molecular target: T2, Serine/threonine-protein kinase BRSK2 (Homo sapiens) (UniProt Q8IWQ3); conditions: Compound concentration 1000.0 nM
T2 sequence (whole entry): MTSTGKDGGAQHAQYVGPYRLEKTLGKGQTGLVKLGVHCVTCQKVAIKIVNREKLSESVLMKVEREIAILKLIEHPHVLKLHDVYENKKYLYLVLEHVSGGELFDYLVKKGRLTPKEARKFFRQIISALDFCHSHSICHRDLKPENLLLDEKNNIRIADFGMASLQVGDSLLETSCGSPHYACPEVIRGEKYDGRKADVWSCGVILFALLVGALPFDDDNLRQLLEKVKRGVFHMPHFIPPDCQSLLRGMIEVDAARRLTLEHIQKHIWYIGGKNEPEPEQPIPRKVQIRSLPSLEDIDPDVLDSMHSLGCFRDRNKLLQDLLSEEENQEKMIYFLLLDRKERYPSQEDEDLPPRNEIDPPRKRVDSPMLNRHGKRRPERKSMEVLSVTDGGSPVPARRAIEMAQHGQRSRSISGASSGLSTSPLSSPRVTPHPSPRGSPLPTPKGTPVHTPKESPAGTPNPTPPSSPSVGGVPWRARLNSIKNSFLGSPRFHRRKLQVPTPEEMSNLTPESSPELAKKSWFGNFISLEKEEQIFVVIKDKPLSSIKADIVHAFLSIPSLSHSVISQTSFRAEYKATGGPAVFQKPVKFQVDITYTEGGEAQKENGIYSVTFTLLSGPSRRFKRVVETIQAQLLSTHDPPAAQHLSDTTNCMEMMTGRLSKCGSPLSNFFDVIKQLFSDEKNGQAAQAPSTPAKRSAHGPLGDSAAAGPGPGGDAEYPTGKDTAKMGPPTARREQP

[9] = molecular target: Calcium/calmodulin-dependent protein kinase type II subunit delta (Homo sapiens) (UniProt Q13557); conditions: Compound concentration 1000.0 nM
[10] = molecular target: Phosphatidylinositol 4,5-bisphosphate 3-kinase catalytic subunit gamma isoform (Homo sapiens) (UniProt P48736); conditions: Compound concentration 1000.0 nM
Sequence of Phosphatidylinositol 4,5-bisphosphate 3-kinase catalytic subunit gamma isoform (Homo sapiens) (P48736 whole entry, looked up, canonical isoform): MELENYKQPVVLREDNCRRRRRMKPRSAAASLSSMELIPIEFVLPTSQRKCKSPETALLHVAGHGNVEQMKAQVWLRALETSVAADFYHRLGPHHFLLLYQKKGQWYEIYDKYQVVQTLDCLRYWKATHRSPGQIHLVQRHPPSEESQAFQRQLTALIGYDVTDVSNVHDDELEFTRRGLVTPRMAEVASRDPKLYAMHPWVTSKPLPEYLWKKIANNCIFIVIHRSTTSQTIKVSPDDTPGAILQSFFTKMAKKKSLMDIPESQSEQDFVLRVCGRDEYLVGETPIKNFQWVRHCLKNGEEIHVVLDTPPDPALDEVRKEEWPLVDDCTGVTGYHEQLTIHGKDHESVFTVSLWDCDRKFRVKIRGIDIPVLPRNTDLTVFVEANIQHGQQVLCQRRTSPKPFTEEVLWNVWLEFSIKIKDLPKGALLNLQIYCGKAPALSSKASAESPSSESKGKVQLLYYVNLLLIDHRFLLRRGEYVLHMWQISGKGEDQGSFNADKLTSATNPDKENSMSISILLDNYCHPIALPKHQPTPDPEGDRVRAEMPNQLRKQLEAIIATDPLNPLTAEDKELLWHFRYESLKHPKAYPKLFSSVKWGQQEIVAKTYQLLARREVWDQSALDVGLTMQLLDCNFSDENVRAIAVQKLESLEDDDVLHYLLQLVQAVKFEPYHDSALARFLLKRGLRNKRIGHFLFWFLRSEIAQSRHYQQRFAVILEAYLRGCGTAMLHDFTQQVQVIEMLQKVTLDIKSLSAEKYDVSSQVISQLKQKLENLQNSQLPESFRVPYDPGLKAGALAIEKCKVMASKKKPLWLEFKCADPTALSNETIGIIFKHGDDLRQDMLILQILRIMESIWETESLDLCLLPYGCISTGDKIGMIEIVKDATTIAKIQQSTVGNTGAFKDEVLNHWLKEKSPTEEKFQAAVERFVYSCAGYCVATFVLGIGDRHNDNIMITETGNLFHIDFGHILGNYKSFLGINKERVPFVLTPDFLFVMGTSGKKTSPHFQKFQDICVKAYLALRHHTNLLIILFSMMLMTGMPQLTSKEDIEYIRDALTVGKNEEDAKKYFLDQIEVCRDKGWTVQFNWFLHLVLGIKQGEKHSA

[11] = molecular target: Glycogen synthase kinase-3 beta (Homo sapiens) (UniProt P49841); conditions: Compound concentration 1000.0 nM
[12] = molecular target: Bone morphogenetic protein receptor type-1A (Homo sapiens) (UniProt P36894); conditions: Compound concentration 1000.0 nM
[13] = molecular target: Serine/threonine-protein kinase LATS2 (Homo sapiens) (UniProt Q9NRM7); conditions: Compound concentration 1000.0 nM
Sequence of Serine/threonine-protein kinase LATS2 (Homo sapiens) (Q9NRM7 whole entry): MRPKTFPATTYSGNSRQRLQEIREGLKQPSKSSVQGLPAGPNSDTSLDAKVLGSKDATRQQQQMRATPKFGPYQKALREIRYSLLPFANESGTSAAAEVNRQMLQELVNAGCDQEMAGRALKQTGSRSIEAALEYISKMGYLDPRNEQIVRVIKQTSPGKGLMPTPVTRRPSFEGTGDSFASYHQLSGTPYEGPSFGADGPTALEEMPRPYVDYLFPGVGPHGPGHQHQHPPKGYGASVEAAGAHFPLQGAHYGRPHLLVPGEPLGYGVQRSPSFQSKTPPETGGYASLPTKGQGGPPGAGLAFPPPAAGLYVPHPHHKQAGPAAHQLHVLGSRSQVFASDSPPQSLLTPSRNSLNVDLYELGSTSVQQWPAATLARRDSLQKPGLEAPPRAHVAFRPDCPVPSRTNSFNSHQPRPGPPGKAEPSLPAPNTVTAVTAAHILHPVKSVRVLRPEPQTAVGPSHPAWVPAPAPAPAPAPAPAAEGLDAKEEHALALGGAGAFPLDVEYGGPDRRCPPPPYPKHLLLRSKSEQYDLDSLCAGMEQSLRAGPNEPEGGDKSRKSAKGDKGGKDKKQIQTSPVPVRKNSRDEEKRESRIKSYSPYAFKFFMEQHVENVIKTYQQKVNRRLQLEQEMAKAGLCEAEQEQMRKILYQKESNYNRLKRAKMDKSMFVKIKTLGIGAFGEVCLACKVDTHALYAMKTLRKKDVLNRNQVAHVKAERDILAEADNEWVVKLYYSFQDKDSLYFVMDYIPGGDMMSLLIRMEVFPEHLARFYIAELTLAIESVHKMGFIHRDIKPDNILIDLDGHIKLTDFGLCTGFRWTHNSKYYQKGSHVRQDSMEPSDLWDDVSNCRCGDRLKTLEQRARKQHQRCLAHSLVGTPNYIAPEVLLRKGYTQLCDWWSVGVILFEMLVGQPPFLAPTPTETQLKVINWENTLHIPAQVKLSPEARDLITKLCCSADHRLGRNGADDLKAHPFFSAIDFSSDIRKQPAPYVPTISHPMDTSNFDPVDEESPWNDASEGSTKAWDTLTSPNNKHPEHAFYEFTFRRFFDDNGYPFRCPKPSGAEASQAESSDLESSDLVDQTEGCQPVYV

[14] = molecular target: T3, Rhodopsin kinase GRK1 (Homo sapiens) (UniProt Q15835); conditions: Compound concentration 1000.0 nM
T3 sequence (whole entry): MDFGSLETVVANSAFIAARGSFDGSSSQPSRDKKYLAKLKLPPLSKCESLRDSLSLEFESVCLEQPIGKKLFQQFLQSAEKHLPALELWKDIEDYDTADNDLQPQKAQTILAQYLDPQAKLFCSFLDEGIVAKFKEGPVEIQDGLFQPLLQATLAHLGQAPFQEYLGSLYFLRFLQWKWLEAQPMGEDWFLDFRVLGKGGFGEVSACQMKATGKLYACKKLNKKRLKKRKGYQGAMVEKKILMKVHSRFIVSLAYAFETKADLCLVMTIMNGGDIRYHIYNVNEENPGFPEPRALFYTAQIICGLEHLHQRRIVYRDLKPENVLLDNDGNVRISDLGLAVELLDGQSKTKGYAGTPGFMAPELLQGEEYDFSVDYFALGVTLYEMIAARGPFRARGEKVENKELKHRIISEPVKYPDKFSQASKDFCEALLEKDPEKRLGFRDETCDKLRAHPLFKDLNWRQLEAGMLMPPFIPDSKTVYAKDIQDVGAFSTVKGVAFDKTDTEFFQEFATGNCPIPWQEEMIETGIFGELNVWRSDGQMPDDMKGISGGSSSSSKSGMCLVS

[15] = molecular target: 5-hydroxytryptamine receptor 1B (Homo sapiens) (UniProt P28222); conditions: Compound concentration 10.0 uM
Sequence of 5-hydroxytryptamine receptor 1B (Homo sapiens) (P28222 whole entry): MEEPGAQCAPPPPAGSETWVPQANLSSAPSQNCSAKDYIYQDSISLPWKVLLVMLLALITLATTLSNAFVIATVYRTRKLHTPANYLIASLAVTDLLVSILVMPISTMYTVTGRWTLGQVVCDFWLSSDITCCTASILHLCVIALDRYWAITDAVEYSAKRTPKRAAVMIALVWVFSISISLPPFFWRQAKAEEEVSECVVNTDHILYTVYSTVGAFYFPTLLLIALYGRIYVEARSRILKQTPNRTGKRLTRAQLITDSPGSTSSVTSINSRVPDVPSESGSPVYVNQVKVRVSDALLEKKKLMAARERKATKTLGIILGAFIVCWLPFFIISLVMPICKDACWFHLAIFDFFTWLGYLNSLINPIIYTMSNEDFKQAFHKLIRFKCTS

[16] = molecular target: Mitogen-activated protein kinase 1 (Homo sapiens) (UniProt P28482); conditions: Compound concentration 1000.0 nM
Sequence of Mitogen-activated protein kinase 1 (Homo sapiens) (P28482 whole entry): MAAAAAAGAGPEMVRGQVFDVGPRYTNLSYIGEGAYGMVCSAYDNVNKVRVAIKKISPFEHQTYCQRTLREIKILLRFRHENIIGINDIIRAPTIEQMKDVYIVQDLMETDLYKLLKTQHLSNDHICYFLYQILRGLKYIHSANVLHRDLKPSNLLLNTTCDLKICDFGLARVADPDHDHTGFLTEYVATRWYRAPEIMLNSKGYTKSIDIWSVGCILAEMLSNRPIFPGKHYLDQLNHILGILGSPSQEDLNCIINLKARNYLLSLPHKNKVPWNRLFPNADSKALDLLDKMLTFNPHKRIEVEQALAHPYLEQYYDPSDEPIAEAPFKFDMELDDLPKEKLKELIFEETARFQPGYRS

Sequence of 5'-AMP-activated protein kinase catalytic subunit alpha-1 (Q13131 whole entry, looked up): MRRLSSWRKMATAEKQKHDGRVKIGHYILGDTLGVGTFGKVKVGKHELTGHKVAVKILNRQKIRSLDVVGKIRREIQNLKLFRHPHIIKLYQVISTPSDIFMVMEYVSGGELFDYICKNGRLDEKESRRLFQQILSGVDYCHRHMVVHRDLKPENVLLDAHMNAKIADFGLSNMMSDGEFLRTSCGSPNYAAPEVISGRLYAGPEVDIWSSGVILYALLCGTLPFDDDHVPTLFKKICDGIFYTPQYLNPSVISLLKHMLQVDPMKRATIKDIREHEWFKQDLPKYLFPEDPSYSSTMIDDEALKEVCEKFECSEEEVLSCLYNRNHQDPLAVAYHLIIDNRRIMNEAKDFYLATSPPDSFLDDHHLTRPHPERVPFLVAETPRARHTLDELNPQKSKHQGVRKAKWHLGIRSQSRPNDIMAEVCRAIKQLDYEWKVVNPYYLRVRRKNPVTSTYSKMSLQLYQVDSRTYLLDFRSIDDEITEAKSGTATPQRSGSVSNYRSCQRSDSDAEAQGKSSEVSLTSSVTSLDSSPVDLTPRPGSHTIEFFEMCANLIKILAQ

Compound | residual activity [1] | residual activity [2] | residual activity [3] | residual activity [4] | residual activity [5] | residual activity [6] | residual activity [7] | residual activity [8] | residual activity [9] | residual activity [10] | residual activity [11] | residual activity [12] | residual activity [13] | residual activity [14] | inhibition [15] | residual activity [16]
CCc1ccccc1C(=O)Nc1n[nH]c2c(C)c(F)c(C3C(C#N)=C(C)N(C)C(C)=C3C#N)cc12 [BAY-3827] | 7.5% | 65% | 100% | 82% | 82% | 100% | 100% | 36% | 78% | 100% | 100% | 87% | 67% | 43% | 9.48% | 86%
CC1=C(C#N)C(c2ccc3c(c2)c(NC(=O)c2ccccc2C)nn3C)C(C#N)=C(C)N1 [BAY-974] | 77% | 97% | 100% | 100% | 89% | 92% | 63% | 92% | 100% | 84% | 81% | 100% | 100% | 88% | 4.12% | 80%
